Laboratory results as given in PubChem BioAssay (NCI).
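Cultured in 96-well plates, cells were exposed to test compound for 48 hours across five concentrations. Here, GI50 denotes the concentration required for 50% inhibition of growth. TGI: total growth inhibition.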

What was measured:
Test in all cases: NCI tumour cell line growth inhibition, 48 h
[1] = tested on: MDA-MB-435
[2] = tested on: A549 NSCLC
[3] = tested on: CCRF-CEM leukemia
[4] = tested on: UACC-257 melanoma
[5] = tested on: OVCAR-3 ovarian
[6] = tested on: DU-145 prostate
[7] = tested on: HT29 colon
[8] = tested on: NCI-H460 lung
[9] = tested on: OVCAR-5 ovarian
[10] = tested on: MALME-3M melanoma
[11] = tested on: PC-3 prostate
[12] = tested on: UACC-62 melanoma
[13] = tested on: SF-539 CNS
[14] = tested on: K-562 leukemia
[15] = tested on: RPMI-8226 leukemia
[16] = tested on: TK-10 renal
[17] = tested on: ACHN renal
[18] = tested on: HCT-116 colon
[19] = tested on: EKVX NSCLC
[20] = tested on: IGROV1 ovarian
[21] = tested on: BT-549 breast
[22] = tested on: T-47D breast
[23] = tested on: SNB-75 CNS
[24] = tested on: KM12 colon
[25] = tested on: MCF7 breast
[26] = tested on: SN12C renal
[27] = tested on: LOX IMVI melanoma
[28] = tested on: NCI/ADR-RES ovarian
[29] = tested on: SNB-19 CNS
[30] = tested on: HOP-92 NSCLC
[31] = tested on: HCT-15 colon
[32] = tested on: SW-620 colon
[33] = tested on: SK-OV-3 ovarian
[34] = tested on: A498 renal
[35] = tested on: 786-0 renal
[36] = tested on: U251 CNS
[37] = tested on: COLO 205 colon
[38] = tested on: HOP-62 NSCLC
[39] = tested on: MDA-MB-231 breast
[40] = tested on: OVCAR-4 ovarian
[41] = tested on: NCI-H522 lung
[42] = tested on: OVCAR-8 ovarian
[43] = tested on: MOLT-4 leukemia
[44] = tested on: HS 578T breast
[45] = tested on: HCC-2998 colon
[46] = tested on: RXF 393 renal
[47] = tested on: SF-295 CNS
[48] = tested on: CAKI-1 renal
[49] = tested on: SK-MEL-5 melanoma
[50] = tested on: UO-31 renal
[51] = tested on: M14 melanoma
[52] = tested on: NCI-H226 lung
[53] = tested on: SK-MEL-28 melanoma
[54] = tested on: SF-268 CNS

O=S(=O)(NCCCNc1nccc(-c2[nH]c(-c3ccccc3)nc2-c2ccc(F)c(O)c2)n1)c1ccc(C(F)(F)F)cc1
GI50 [1]: 1.59 µM
TGI [1]: 3.7 µM
GI50 [2]: 3.04 µM
TGI [2]: 12.4 µM
GI50 [3]: 3.46 µM
TGI [3]: > 100 µM
GI50 [4]: 2.48 µM
TGI [4]: 7.33 µM
GI50 [5]: 2.62 µM
TGI [5]: 5.49 µM
GI50 [6]: 3.06 µM
TGI [6]: 11.5 µM
GI50 [7]: 2.96 µM
GI50 [8]: 2.26 µM
TGI [8]: 5.07 µM
GI50 [9]: 3.12 µM
TGI [9]: 9.26 µM
GI50 [10]: 1.21 µM
TGI [10]: 3.47 µM
GI50 [11]: 3.08 µM
TGI [11]: > 100 µM
GI50 [12]: 1.29 µM
TGI [12]: 2.82 µM
GI50 [13]: 2 µM
TGI [13]: 3.85 µM
GI50 [14]: 2.87 µM
TGI [14]: > 100 µM
GI50 [15]: 2.49 µM
TGI [15]: 7.05 µM
GI50 [16]: 3.79 µM
TGI [16]: 28.1 µM
GI50 [17]: 2.85 µM
TGI [17]: 8.78 µM
GI50 [18]: 2.18 µM
TGI [18]: 5.11 µM
GI50 [19]: 3.61 µM
TGI [19]: 16 µM
GI50 [20]: 2.41 µM
TGI [20]: 6.72 µM
GI50 [21]: 2.53 µM
TGI [21]: 7.12 µM
GI50 [22]: 2.56 µM
TGI [22]: 22 µM
GI50 [23]: 2.22 µM
TGI [23]: 7.79 µM
GI50 [24]: 3.05 µM
TGI [24]: 9.09 µM
GI50 [25]: 2.82 µM
TGI [25]: 10.4 µM
GI50 [26]: 2.59 µM
TGI [26]: 7.62 µM
GI50 [27]: 2.01 µM
TGI [27]: 4.78 µM
GI50 [28]: 3.88 µM
TGI [28]: 18.9 µM
GI50 [29]: 3.51 µM
TGI [29]: 11.1 µM
GI50 [30]: 2.15 µM
TGI [30]: 9.16 µM
GI50 [31]: 3.04 µM
TGI [31]: 9.62 µM
GI50 [32]: 4.09 µM
TGI [32]: 15 µM
GI50 [33]: 3.46 µM
TGI [33]: 18.8 µM
GI50 [34]: 2.68 µM
TGI [34]: 7.38 µM
GI50 [35]: 3.52 µM
TGI [35]: 11.7 µM
GI50 [36]: 3.15 µM
TGI [36]: 9.85 µM
GI50 [37]: 3.06 µM
TGI [37]: 9.77 µM
GI50 [38]: 2.89 µM
TGI [38]: 10.9 µM
GI50 [39]: 2.75 µM
TGI [39]: 8.44 µM
GI50 [40]: 3.62 µM
TGI [40]: 24.1 µM
GI50 [41]: 2.42 µM
TGI [41]: 7.12 µM
GI50 [42]: 3.37 µM
TGI [42]: > 100 µM
GI50 [43]: 3.02 µM
TGI [43]: > 100 µM
GI50 [44]: 2.71 µM
TGI [44]: 7.12 µM
GI50 [45]: 2.8 µM
TGI [45]: 6.53 µM
GI50 [46]: 2.3 µM
TGI [46]: 5 µM
GI50 [47]: 1.88 µM
TGI [47]: 3.58 µM
GI50 [48]: 2.57 µM
TGI [48]: 13.8 µM
GI50 [49]: 1.69 µM
TGI [49]: 3.23 µM
GI50 [50]: 2.69 µM
TGI [50]: 7.17 µM
GI50 [51]: 1.46 µM
TGI [51]: 4.09 µM
GI50 [52]: 3.85 µM
TGI [52]: 16.7 µM
GI50 [53]: 1.61 µM
TGI [53]: 4.46 µM
GI50 [54]: 2.55 µM
TGI [54]: 7.25 µM
